# Measured values reported in patent publication US6395735B2, “Pharmaceutical compounds” (Eli Lilly and Company, priority 1997, dated 2002).
# Biological target: T1, human m4 receptors (Homo sapiens, UniProt P08173)
# T1 construct: expressed in transfected cells; host or cells: CHO K1 cells
# Assay: Stimulation of cyclic AMP production in pertussis toxin-treated CHO-m4 cells
# Assay type: cell-based
# Details: forskolin present
# Protocol: Cyclic AMP Accumulation in Pertussis Toxin-Treated CHO m4 Cells. CHO K1 cells transfected with human m4 receptors were grown to near confluency in T-150 flasks using Dulbecco's Modified Eagle Medium (DMEM) containing 10% fetal bovine serum. Cells were detached with 0.05% trypsin, 0.53 mM EDTA, and were suspended in medium containing 100 ng/ml pertussis toxin. Cells were plated at 30,000 cells per well into 96 well plates. Eighteen to twenty hours later the medium was removed and the cells were washed with serum-bee medium. Attached cells were incubated at 37 C for one hour after addition of […] of serum free DMEM containing 1 mM 3-isobutyl-1-methylxanthine and 1 mM forskolin plus or minus drugs being tested. Incubations were terminated with […] per well of serum free DMEM containing 0.3% triton-X-100. After stopping incubations the plates were allowed to sit for 20 minutes to extract cAMP and samples were then diluted 2.5-fold and were assayed using the scintillation proximity assay of Amersham (Arlington Heights, Ill.).
# Representative results from the M4 assay are as follows
# Stimulation of cyclic AMP production in CHO-m4 cells.
# T1 sequence (P08173 whole entry): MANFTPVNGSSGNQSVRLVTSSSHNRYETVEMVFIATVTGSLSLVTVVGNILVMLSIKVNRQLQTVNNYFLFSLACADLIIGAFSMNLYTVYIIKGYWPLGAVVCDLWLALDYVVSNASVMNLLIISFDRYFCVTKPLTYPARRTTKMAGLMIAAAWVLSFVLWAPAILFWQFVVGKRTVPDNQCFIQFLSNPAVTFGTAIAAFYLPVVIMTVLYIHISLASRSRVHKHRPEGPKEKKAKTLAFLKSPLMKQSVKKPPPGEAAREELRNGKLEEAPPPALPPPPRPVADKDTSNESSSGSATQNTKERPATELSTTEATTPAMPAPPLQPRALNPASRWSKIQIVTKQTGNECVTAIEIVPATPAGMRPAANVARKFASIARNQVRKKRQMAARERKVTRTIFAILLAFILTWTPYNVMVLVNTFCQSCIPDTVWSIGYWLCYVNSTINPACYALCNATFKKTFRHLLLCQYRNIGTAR
row,SMILES,% Maximum Stimulation Compared to Oxotremorine-M
1,O=C(NC1c2cc(N=CN3CCCC3)ccc2CC1O)C1CCCCC1 (stereo not drawn) [Compound 11],34%
2,O=C(NC1c2cc(N=CN3CCCC3)ccc2CC1O)c1cccnc1Cl (stereo not drawn) [Compound 12],26%
3,N#Cc1ccc(C(=O)NC2c3cc(N=CN4CCCC4)ccc3CC2O)cc1 (stereo not drawn) [Compound 13],<20%
4,O=C(NC1c2cc(N=CN3CCCC3)ccc2CC1O)c1cc(Cl)cc(Cl)c1 (stereo not drawn) [Compound 14],100%
5,O=C(NC1c2cc(N=CN3CCCC3)ccc2CC1O)c1cccc2ccccc12 (stereo not drawn) [Compound 15],76%
6,O=C(NC1c2cc(N=CN3CCCC3)ccc2CC1O)c1ccc2ccccc2c1 (stereo not drawn) [Compound 17],56%
7,O=C(NC1c2cc(N=CN3CCCC3)ccc2CC1O)c1ccc(C(F)(F)F)cc1 (stereo not drawn) [Compound 18],61%
8,O=C(NC1c2cc(N=CN3CCCC3)ccc2CC1O)C(F)(F)F (stereo not drawn) [Compound 19],<20%
9,O=C(NC1c2cc(N=CN3CCCC3)ccc2CC1O)c1ccc([N+](=O)[O-])cc1Cl (stereo not drawn) [Compound 20],69%
10,O=C(NC1c2cc(N=CN3CCCC3)ccc2CC1O)c1cccs1 (stereo not drawn) [Compound 21],23%
11,O=C(NC1c2cc(N=CN3CCCC3)ccc2CC1O)c1cc(F)cc(F)c1 (stereo not drawn) [Compound 23],<20%
12,O=C(NC1c2cc(N=CN3CCCC3)ccc2CC1O)c1cccc(F)c1F (stereo not drawn) [Compound 24],22%
13,O=C(NC1c2cc(N=CN3CCCC3)ccc2CC1O)c1cccc([N+](=O)[O-])c1 (stereo not drawn) [Compound 25],43%
14,CCCc1ccc(C(=O)NC2c3cc(N=CN4CCCC4)ccc3CC2O)cc1 (stereo not drawn) [Compound 26],<20%
15,Cc1cc(C)c(C(=O)NC2c3cc(N=CN4CCCC4)ccc3CC2O)c(C)c1 (stereo not drawn) [Compound 27],<20%
16,O=C(CSc1ccccc1)NC1c2cc(N=CN3CCCC3)ccc2CC1O (stereo not drawn) [Compound 28],<20%
17,O=C(NC1c2cc(N=CN3CCCC3)ccc2CC1O)c1c(F)ccc(F)c1F (stereo not drawn) [Compound 29],<20%
18,O=C(NC1c2cc(N=CN3CCCC3)ccc2CC1O)c1cccc(F)c1 (stereo not drawn) [Compound 30],<20%
19,O=C(NC1c2cc(N=CN3CCCC3)ccc2CC1O)c1cccc(Cl)c1Cl (stereo not drawn) [Compound 31],45%

row,SMILES,% Maximum Stimulation Compared to Oxotremorine-M
1,O=C(NC1c2cc(N=CN3CCCC3)ccc2CC1O)c1cc(F)ccc1F (stereo not drawn) [Compound 32],<20%
2,O=C(NC1c2cc(N=CN3CCCC3)ccc2CC1O)c1ccc(F)c(F)c1F (stereo not drawn) [Compound 33],45%
3,COc1cccc(C(=O)NC2c3cc(N=CN4CCCC4)ccc3CC2O)c1 (stereo not drawn) [Compound 34],45%
4,O=C(NC1c2cc(N=CN3CCCC3)ccc2CC1O)c1ccccc1C(F)(F)F (stereo not drawn) [Compound 35],65%
5,COc1cc(OC)cc(C(=O)NC2c3cc(N=CN4CCCC4)ccc3CC2O)c1 (stereo not drawn) [Compound 36],<20%
6,Cc1cccc(C(=O)NC2c3cc(N=CN4CCCC4)ccc3CC2O)c1 (stereo not drawn) [Compound 37],76%
7,N#Cc1cccc(C(=O)NC2c3cc(N=CN4CCCC4)ccc3CC2O)c1 (stereo not drawn) [Compound 38],<20%
8,O=C(NC1c2cc(N=CN3CCCC3)ccc2CC1O)c1cc(F)c(F)c(F)c1 (stereo not drawn) [Compound 39],43%
9,O=C(NC1c2cc(N=CN3CCCC3)ccc2CC1O)c1cc(F)c(F)c(F)c1F (stereo not drawn) [Compound 40],96%
10,O=C(NC1c2cc(N=CN3CCCC3)ccc2CC1O)C1CCC1 (stereo not drawn) [Compound 41],<20%
11,O=C(NC1c2cc(N=CN3CCCC3)ccc2CC1O)c1ccccc1Cl (stereo not drawn) [Compound 44],41%
12,CCCCc1ccc(C(=O)N[C@@H]2c3cc(N=CN4CCCC4)ccc3C[C@H]2O)cc1 [Compound 45],<20%
13,O=C(N[C@@H]1c2cc(N=CN3CCCC3)ccc2C[C@H]1O)c1c(Cl)cccc1Cl [Compound 46],154%
14,O=C(N[C@@H]1c2cc(N=CN3CCCC3)ccc2C[C@H]1O)c1c(Cl)cc(Cl)cc1Cl [Compound 47],<20%
15,CN(C)C=Nc1ccc2c(c1)[C@@H](NC(=O)c1ccccc1)[C@H](O)C2 [Compound 57],5%
16,CN(C)C=Nc1ccc2c(c1)[C@@H](NC(=O)c1cc(Cl)cc(Cl)c1)[C@H](O)C2 [Compound 58],74%
17,CCCCOc1ccc(C(=O)N[C@@H]2c3cc(N=CN(C)C)ccc3C[C@H]2O)cc1 [Compound 59],22%
18,CN(C)C=Nc1ccc2c(c1)[C@@H](NC(=O)c1cc(C(F)(F)F)cc(C(F)(F)F)c1)[C@H](O)C2 [Compound 60],100%
19,CN(C)C=Nc1ccc2c(c1)[C@@H](NC(=O)c1cccc(C#N)c1)[C@H](O)C2 [Compound 61],39%

row,SMILES,% Maximum Stimulation Compared to Oxotremorine-M
1,CN(C)C=Nc1ccc2c(c1)[C@@H](NC(=O)C1CCCC1)[C@H](O)C2 [Compound 62],27%
2,CN(C)C=Nc1ccc2c(c1)[C@@H](NC(=O)c1ccc3ccccc3c1)[C@H](O)C2 [Compound 63],13%
3,CN(C)C=Nc1ccc2c(c1)[C@@H](NC(=O)c1cc(F)cc(C(F)(F)F)c1)[C@H](O)C2 [Compound 64],52%
4,CN(C)C=Nc1ccc2c(c1)[C@@H](NC(=O)c1cc(F)c(F)c(F)c1)[C@H](O)C2 [Compound 65],30%
5,CN(C)C=Nc1ccc2c(c1)[C@@H](NC(=O)C(F)(F)F)[C@H](O)C2 [Compound 66],0%
6,CCc1ccc(C(=O)N[C@@H]2c3cc(N=CN(C)C)ccc3C[C@H]2O)cc1 [Compound 67],7%
7,CN(C)C=Nc1ccc2c(c1)[C@@H](NC(=O)c1sccc1Cl)[C@H](O)C2 [Compound 68],0%
8,CN(C)C=Nc1ccc2c(c1)[C@@H](NC(=O)c1cc3ccccc3s1)[C@H](O)C2 [Compound 69],14%
9,CCCCc1ccc(C(=O)N[C@@H]2c3cc(N=CN(C)C)ccc3C[C@H]2O)cc1 [Compound 70],18%
10,CN(C)C=Nc1ccc2c(c1)[C@@H](NC(=O)c1cccc3ccccc13)[C@H](O)C2 [Compound 71],95%
11,CN(C)C=Nc1ccc2c(c1)[C@@H](NS(=O)(=O)c1ccc(Cl)c(Cl)c1)[C@H](O)C2 [Compound 72],4%
12,CN(C)C=Nc1ccc2c(c1)[C@@H](NC(=O)c1cccnc1Cl)[C@H](O)C2 [Compound 73],11%
13,CN(C)C=Nc1ccc2c(c1)[C@@H](NC(=O)c1ccc(Cl)nc1)[C@H](O)C2 [Compound 74],8%
14,CN(C)C=Nc1ccc2c(c1)[C@@H](NC(=O)c1ccc(C(F)(F)F)cc1)[C@H](O)C2 [Compound 75],6%
15,CC(=Nc1ccc2c(c1)[C@@H](NC(=O)c1ccc(Cl)c(Cl)c1)[C@H](O)C2)N(C)C [Compound 76],130%
16,O=C(N[C@@H]1c2cc(N=CN3CCCCC3)ccc2C[C@H]1O)c1ccc(Cl)c(Cl)c1 [Compound 77],214%
17,O=C(N[C@@H]1c2cc(N=CN3CCCCC3)ccc2C[C@H]1O)c1cccc(Cl)c1Cl [Compound 88],52%
18,O=C(N[C@@H]1c2cc(N=CN3CCCCC3)ccc2C[C@H]1O)c1cc(Cl)cc(Cl)c1 [Compound 97],36%
19,O=C(N[C@@H]1c2cc(N=CN3CCCCC3)ccc2C[C@H]1O)c1cc(F)cc(F)c1 [Compound 98],73%

# Biological target: T2, A9L-m1 (Homo sapiens, UniProt P11229)
# T2 sequence (P11229 1-460): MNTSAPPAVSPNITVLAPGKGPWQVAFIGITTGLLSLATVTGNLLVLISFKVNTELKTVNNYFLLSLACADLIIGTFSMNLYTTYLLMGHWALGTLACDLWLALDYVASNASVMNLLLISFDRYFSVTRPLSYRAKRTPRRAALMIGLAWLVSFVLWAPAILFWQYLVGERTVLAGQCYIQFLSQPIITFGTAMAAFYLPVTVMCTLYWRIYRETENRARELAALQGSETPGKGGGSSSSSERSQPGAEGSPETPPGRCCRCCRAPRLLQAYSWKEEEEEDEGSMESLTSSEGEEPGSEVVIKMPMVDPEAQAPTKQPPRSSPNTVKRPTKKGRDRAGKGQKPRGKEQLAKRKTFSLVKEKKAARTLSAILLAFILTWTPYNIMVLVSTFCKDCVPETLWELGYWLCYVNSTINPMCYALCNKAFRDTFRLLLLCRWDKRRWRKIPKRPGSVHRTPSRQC
# Assay: m1 secondary assay: PI stimulation in A9L-m1
# Assay type: cell-based
# Details: A9L-m1, relative to carbachol; read-out: Pl stim. A9L-m1 % Max of carbachol
row,SMILES,Emax
1,C/C(=N\c1ccc2c(c1)C(NC(=O)c1ccc(Cl)c(Cl)c1)C(O)C2)N(C)C (stereo not drawn) [Compound 128],59.2%
2,Cc1cc(C(=O)NC2c3cc(/N=C/N4CCCC4)ccc3C[C@@H]2O)ccc1Br (stereo partly drawn) [Compound 129],42%
3,Cc1ccc(C(=O)NC2c3cc(/N=C/N4CCCC4)ccc3C[C@@H]2O)cc1I (stereo partly drawn) [Compound 130],64%

# Same assay, conditions: A9L-m1; read-out: ED-50 Pl stim A9L-m1, nm
row,SMILES,EC50
1,C/C(=N\c1ccc2c(c1)C(NC(=O)c1ccc(Cl)c(Cl)c1)C(O)C2)N(C)C (stereo not drawn) [Compound 128],95.3 nM
2,Cc1cc(C(=O)NC2c3cc(/N=C/N4CCCC4)ccc3C[C@@H]2O)ccc1Br (stereo partly drawn) [Compound 129],41.3 nM
3,Cc1ccc(C(=O)NC2c3cc(/N=C/N4CCCC4)ccc3C[C@@H]2O)cc1I (stereo partly drawn) [Compound 130],9.2 nM
